Measured values published in patent US5192799A, “Coumaran group containing amine compounds and their acid addition salts and quaternary ammonium salts and the use thereof as anti arrhythmic agents and as psychotropic agents” (Mitsui Petrochemical Industries, Ltd., priority 1987, dated 1993).
Where two headings read alike, the source gives them in different places.

Tests used:
[1] = test system: Purkinje fiber; assay: Effect on APD (APD75, field-stimulated right ventricular free wall); format: cell-based, adult mongrel dog; settings: Canis lupus familiaris, purkinje, 20 min, read-out: APD75 % (percent change in APD75); for activation at 10 µg/mL: dose 10 μg/ml
Protocol: The pharmacological effects of the compounds of this invention represented by general formula (1) were studied. By using the heart of an adult mongrel dog, the activity of the compounds of general formula (1) were tested in vitro and in vivo. The heart of an anaethetized dog was extracted and suspended in a chamber at 37° C. in Tyrode's solution. The drug was added to Tyrode's solution being perfused through the heart specimen, and electrophysiological effects of the drug on cardiac action potential duration (APD) and maximum rate of depolarization were studied. An anaethetized dog was cut open at the chest.
An adult mongrel dog was anaethetized with intravenous administration of pentobarbital, 30 mg/kg. The heart was quickly removed, and the right ventricular free wall was dissected in the Tyrode's solution. The right ventricular free wall was fixed within an incubator at 37° C., and field stimulation at 1 Hz was carried out. Intracellular potentials were measured by piercing glass microelectrodes (10-20 megaohms) into the Purkinje fiber and the wave form of cardiac action potential drawn on an oscilloBraun tube via an amplifier was analyzed by a computer. Value of APD was obtained at 75% of full repolarization (APD75). The drug was added to Tyrode's solution (20 ml) perfused through the specimen. The effect of the drug was expressed by a percent change in APD75 after incubation for 20 minutes with the control value of APD before application of the drug being taken as 100%.

[2] = in vivo; settings: mouse, in vivo
Protocol: By using male ddY-strain 5-week old mice (3 to 4 per group), the compounds of general formula (1) were each administered orally or intraperitoneally as a solution in saline or as a suspension in methyl cellulose, and 24 hours after the administration, the toxicity of the compounds was evaluated.

[3] = test system: right ventricle (effective refractory period); assay: Activity on ERP of the right ventricle; format: in vivo, adult mongrel dog; settings: Canis lupus familiaris, read-out: ERP % (ERP prolonging activity)
Protocol: The pharmacological effects of the compounds of this invention represented by general formula (1) were studied. By using the heart of an adult mongrel dog, the activity of the compounds of general formula (1) were tested in vitro and in vivo. The heart of an anaethetized dog was extracted and suspended in a chamber at 37° C. in Tyrode's solution. The drug was added to Tyrode's solution being perfused through the heart specimen, and electrophysiological effects of the drug on cardiac action potential duration (APD) and maximum rate of depolarization were studied. An anaethetized dog was cut open at the chest. […] In an anaethetized and open-chested adult mongrel dug, a silver-silver chloride electrode was sutured to the right ventricle, and ventricular pacing was performed at a stimulation interval of 400 msec for a duration time of 4 msec, twice diastolic threshold. Then, a small amount of alcohol was injected through the sinus artery to extinguish the pacemaker activity, and under ventricular pacing, ERP was measured. Ten stimulations were taken as one train, and the interval between trains when the response to the first stimulation disappeared was defined as ERP. […] ERP before drug administration (intravenously or intraduodenally) was taken as 100%, and ERP prolonging activity of the drugs was expressed by %.

[4] = dose 1 μg/ml, 20 minutes incubation, 37° C., 1 Hz, control before drug = 100%
[5] = dose 3 μg/ml, 20 minutes incubation, 37° C., 1 Hz, control before drug = 100%
[6] = 20 minutes incubation, 37° C., 1 Hz, control before drug = 100%
[7] = po, LD50 p.o., p.o., 24 hours after administration, male ddY mice
[8] = iv, 0.1 mg/kg i.v., ERP before drug = 100%
[9] = iv, 0.3 mg/kg i.v., ERP before drug = 100%
[10] = iv, 1 mg/kg i.v., ERP before drug = 100%
[11] = iv, 3 mg/kg i.v., ERP before drug = 100%

| SMILES | activation at 1 µg/mL [1, 4] | activation at 3 µg/mL [1, 5] | activation at 10 µg/mL [1, 6] | LD50 at 24 h [2, 7] | change in vivo at 0.1 mg/kg [3, 8] | change in vivo at 0.3 mg/kg [3, 9] | change in vivo at 1 mg/kg [3, 10] | change in vivo at 3 mg/kg [3, 11] | other results |
| --- | --- | --- | --- | --- | --- | --- | --- | --- | --- |
| CCCCCCCN(CC)CCOc1ccc2c(c1)OCC2=O [Compound 196] | 7% | 10% | 11% | ~300 mg/kg | 5% | 5% | 18% | – | – |
| CC1CCCCN1CCCOc1ccc2c(c1)OCC2=O (stereo not drawn) [Compound 1114] | 11% | 22% | 35% | > 300 mg/kg | – | – | 3% | 8% | – |
| CC1CCN(CCCOc2ccc3c(c2)OCC3=O)CC1 [Compound 1122] | 4% | 15% | 42% | > 300 mg/kg | – | – | 9% | 15% | – |
| CCCCCCCN(CC)CCCOc1ccc2c(c1OC)OCC2=O [Compound 244] | 6% | 9% | 11% | ~300 mg/kg | 0% | 9% | 9% | 17% | – |
| CCN(CCCOc1ccc2c(c1)OCC2=O)CC1CCCO1 (stereo not drawn) [Compound 184] | – | 16% | 31% | ~300 mg/kg | 4.3 ± 2.2% | 6.3 ± 3.4% | 6.3 ± 3.4% | – | – |
| CCCCCCC[N+](CC)(CC)CCCOc1ccc2oc(=O)cc(C)c2c1 [Compound 630] | – | 25% | 48% | > 300 mg/kg | 3% | 5% | 8% | – | – |
| CCCCCCC[N+](CC)(CC)CCCOc1ccc2c(c1)OCC2O (stereo not drawn) [Compound 470] | 13% | 16% | 20% | > 300 mg/kg | 0% | 0% | 2% | 8% | – |
| CCCCCCC[N+](CC)(CC)CCCOc1ccc2c(c1)OCC2=O.[Br-] [Compound 286, (3-oxo-6-coumaranoxypropyl)diethylheptyl ammonium bromide] | 17% | 29% | – | 300 to 1000 mg/kg | 5.7 ± 0.3% | 15.7 ± 5.5% | 15.7 ± 5.5% | 17.7 ± 7.3% | LD50 at 24 h ([2]; ip, LD50 i.p., i.p., 24 hours after administration, male ddY mice): 100 to 500 mg/kg; change in vivo at 0.1 mg/kg ([3]; 0.1 mg/kg i.d., ERP before drug = 100%): 0%; change in vivo at 0.3 mg/kg ([3]; 0.3 mg/kg i.d., ERP before drug = 100%): 0%; change in vivo at 1 mg/kg ([3]; 1 mg/kg i.d., ERP before drug = 100%): 10%; change in vivo at 3 mg/kg ([3]; 3 mg/kg i.d., ERP before drug = 100%): 19% |
| CCOC(=O)C1CCN(CCCOc2ccc3c(c2)OCC3=O)CC1 [Compound 1282] | – | 11% | 19% | > 300 mg/kg | 0% | 0% | 6% | 6% | – |
| CC(C)CN(CCCOc1ccc2c(c1)OCC2=O)CC(C)C [Compound 132] | 7% | 18% | 21% | > 300 mg/kg | 2.4 ± 2.4% | 2.4 ± 2.4% | 4.8 ± 4.8% | 4.8 ± 4.8% | – |
| CC(C)C1CCN(CCCOc2ccc3c(c2)OCC3=O)CC1 [Compound 1278] | – | 9% | 24% | > 300 mg/kg | 1.6 ± 1.6% | 4.8 ± 1.6% | 13 ± 2.4% | 19.8 ± 0.6% | – |
| CC(C)N(CCCOc1ccc2c(c1)OCC2=O)C(C)C [Compound 116] | 14% | 38% | 44% | > 300 mg/kg | 3% | 7% | 9% | 9% | – |
| O=C1COc2cc(OCCCN3CCC(CO)CC3)ccc21 [Compound 1290] | – | 11% | 28% | – | 0% | 5.9% | 11.8% | 17.7% | LD50 at 24 h ([2]; po): < 300 mg/kg |
| CCCCCN(CC)CCCCOc1ccc2c(c1)OCC2=O [Compound 208] | 0% | 5% | 9% | ~300 mg/kg | – | – | – | – | – |
| CCN(CCCCCCO)CCCOc1ccc2c(c1)OCC2=O [Compound 188] | 17% | 19% | 19% | > 300 mg/kg | – | – | – | – | – |
| CC[N+]1(CCCOc2ccc3c(c2)OCC3=O)CC(C)OC(C)C1 (stereo not drawn) [Compound 1171] | 0% | 10% | – | > 300 mg/kg | – | – | – | – | – |
| C=CCN(CCCOc1ccc2c(c1)OCC2=O)C1CCCCC1 [Compound 160] | 0% | 7% | 11% | > 300 mg/kg | – | – | – | – | – |
| CCC1CCN(CCCOc2ccc3c(c2)OCC3=O)CC1 [Compound 1274] | 6% | 19% | – | – | 0% | 6.7% | 13.3% | 13.3% | LD50 at 24 h ([2]; po): < 300 mg/kg |
| CCCCCCCN(CC)CCCCOc1ccc2c(c1)OCC2=O [Compound 212] | 4% | 8% | – | 300 to 600 mg/kg | 7.1 ± 3.4% | 7.1 ± 3.4% | 13.8 ± 3.6% | 13.8 ± 3.6% | – |
| CCCCCCCN(CC)CC(O)COc1ccc2c(c1)OCC2=O.Cc1ccc(S(=O)(=O)O)cc1 (stereo not drawn) [Compound 216, 6-[3-(N-ethyl-N-heptylamino)-2-hydroxypropyloxy]coumaran-3-one p-toluenesu lfonate] | – | – | – | 300 to 600 mg/kg | – | – | – | – | activation at 1 µg/mL [1]: 13%; activation at 3 µg/mL [1]: 17%; change in vivo at 0.1 mg/kg ([3]; iv): 8%; change in vivo at 0.3 mg/kg ([3]; iv): 8%; change in vivo at 1 mg/kg ([3]; iv): 8%; change in vivo at 3 mg/kg ([3]; iv): 8% |
| CC(=O)NC1CCN(CCCOc2ccc3c(c2)OCC3=O)CC1 [Compound 1302] | – | 5% | 13% | > 300 mg/kg | – | – | – | – | – |
